Reference: ChEMBL document CHEMBL5724558, “Image-based profiling of drug vulnerabilities in CRC organoids” (2024)
Where “and” joins values, the source holds several entries; their conditions need not be identical. Identical values can stand only once.

Key:
Format in all cases: functional, Homo sapiens
Parameters in all cases: dose or concentration left out as unconfirmed
Colon cancer organoid [1] = assay: (§1) Image-based profiling of donated chemical probes and chemogenomic kinase set in O06 CRC organoid. Image analysis is performed on the sum area metric, and the data were normalized to the DMSO control. After imaging the organoid viability is measured using the OneGloEX Luciferase Assay System. The normalized viability data and sum area are reported.
Colon cancer organoid [2] = assay: as §1, with “O09” for “O06”
Colon cancer organoid [3] = assay: as §1, with “O21” for “O06”

CN(C)[C@H]1CCN(c2cc(-c3ccccc3)nc3ccnn23)C1 [(S)-ZINC-3573]
Cell Viability (Colon cancer organoid [1]; Replication number 1): 125.32% and 118.543%
Cell Viability (Colon cancer organoid [1]; Replication number 2): 115.524% and 96.3479%
Cell Viability (Colon cancer organoid [2]; Replication number 1): 74.4521% and 108.791%
Cell Viability (Colon cancer organoid [2]; Replication number 2): 105.794% and 104.481%
Cell Viability (Colon cancer organoid [3]; Replication number 1): 105.743% and 100.4%
Cell Viability (Colon cancer organoid [3]; Replication number 2): 101.814% and 109.109%

CNC(=O)c1cc(C(=O)N[C@H]2[C@@H]3COC[C@@H]32)cc2c1O[C@H](CF)[C@H]2c1ccccc1 [GSK973]
Cell Viability (Colon cancer organoid [1]; Replication number 1): 85.8672% and 112.47%
Cell Viability (Colon cancer organoid [1]; Replication number 2): 108.347% and 115.089%
Cell Viability (Colon cancer organoid [2]; Replication number 1): 33.6063% and 74.8406%
Cell Viability (Colon cancer organoid [2]; Replication number 2): 64.0142% and 82.8707%
Cell Viability (Colon cancer organoid [3]; Replication number 1): 110.582% and 117.861%
Cell Viability (Colon cancer organoid [3]; Replication number 2): 99.9706% and 95.8532%

CCOc1cc2ncc(C#N)c(Nc3ccc(OCc4cccc(F)c4)c(Cl)c3)c2cc1NC(=O)/C=C/CN(C)C [HKI-357]
Cell Viability (Colon cancer organoid [1]; Replication number 1): 2.387% and 8.346%
Cell Viability (Colon cancer organoid [1]; Replication number 2): 3.908% and 9.337%
Cell Viability (Colon cancer organoid [2]; Replication number 1): 14.2588% and 15.3343%
Cell Viability (Colon cancer organoid [2]; Replication number 2): 12.8508% and 14.4694%
Cell Viability (Colon cancer organoid [3]; Replication number 1): 27.4097% and 41.0314%
Cell Viability (Colon cancer organoid [3]; Replication number 2): 48.8208% and 68.5139%

CCc1cc(Nc2nccc(-c3c(-c4ccc(OC)c(C(=O)Nc5c(F)cccc5F)c4)nc4ccccn34)n2)c(OC)cc1N1CCC(N2CCN(S(C)(=O)=O)CC2)CC1
Cell Viability (Colon cancer organoid [1]; Replication number 1): 105.005% and 109.946%
Cell Viability (Colon cancer organoid [1]; Replication number 2): 148.394% and 109.614%
Cell Viability (Colon cancer organoid [2]; Replication number 1): 134.446% and 100.483%
Cell Viability (Colon cancer organoid [2]; Replication number 2): 134.446% and 126.607%
Cell Viability (Colon cancer organoid [3]; Replication number 1): 80.3348% and 98.676%
Cell Viability (Colon cancer organoid [3]; Replication number 2): 124.058% and 123.21%

C[C@@H]1CCc2ncc(F)cc2[C@H]2CCCN2c2ccn3ncc(c3n2)C(=O)N1 [SELITRECTINIB]
Cell Viability (Colon cancer organoid [1]; Replication number 1): 134.929% and 121.742%
Cell Viability (Colon cancer organoid [1]; Replication number 2): 93.5037% and 107.969%
Cell Viability (Colon cancer organoid [2]; Replication number 1): 111.995% and 102.727%
Cell Viability (Colon cancer organoid [2]; Replication number 2): 91.1731% and 73.4267%
Cell Viability (Colon cancer organoid [3]; Replication number 1): 119.212% and 110.383%
Cell Viability (Colon cancer organoid [3]; Replication number 2): 103.521% and 97.8769%

CN(C(=O)c1ccccc1)c1cc(N(C)c2ccc3c(c2)CCc2ccc(C(=O)NCCN4CCOCC4)cc2C3=O)ccc1F [FM-743]
Cell Viability (Colon cancer organoid [1]; Replication number 1): 90.1876% and 101.781%
Cell Viability (Colon cancer organoid [1]; Replication number 2): 105.862% and 118.933%
Cell Viability (Colon cancer organoid [2]; Replication number 1): 89.1217% and 99.5999%
Cell Viability (Colon cancer organoid [2]; Replication number 2): 73.0037% and 91.594%
Cell Viability (Colon cancer organoid [3]; Replication number 1): 111.27% and 106.402%
Cell Viability (Colon cancer organoid [3]; Replication number 2): 83.0534% and 97.3827%

Cc1c(C(=O)O)cc(-c2ccc(C3CCNCC3)cc2)c2ccc(-c3ccc(C(F)(F)F)cc3)cc12.Cl
Cell Viability (Colon cancer organoid [1]; Replication number 1): 120.986% and 114.413%
Cell Viability (Colon cancer organoid [1]; Replication number 2): 106.141% and 127.102%
Cell Viability (Colon cancer organoid [2]; Replication number 1): 120.061% and 98.4744%
Cell Viability (Colon cancer organoid [2]; Replication number 2): 101.967% and 96.9469%
Cell Viability (Colon cancer organoid [3]; Replication number 1): 85.8075% and 94.398%
Cell Viability (Colon cancer organoid [3]; Replication number 2): 96.6667% and 83.1067%

Cn1cncc1[C@@](O)(COc1ccc(C#N)cc1-c1ccc(OC(F)(F)F)cc1)c1ccc(C#N)cc1 [A-108]
Cell Viability (Colon cancer organoid [1]; Replication number 1): 98.5597% and 105.855%
Cell Viability (Colon cancer organoid [1]; Replication number 2): 74.5028% and 111.105%
Cell Viability (Colon cancer organoid [2]; Replication number 1): 62.58% and 86.4879%
Cell Viability (Colon cancer organoid [2]; Replication number 2): 152.883% and 128.222%
Cell Viability (Colon cancer organoid [3]; Replication number 1): 75.0431% and 83.2471%
Cell Viability (Colon cancer organoid [3]; Replication number 2): 104.838% and 112.755%

CC(=O)C1=C(C)N(c2cccc(C(F)(F)F)c2)C(=O)N[C@H]1c1ccc(C#N)nc1 [BAY-677]
Cell Viability (Colon cancer organoid [1]; Replication number 1): 100.678% and 123.419%
Cell Viability (Colon cancer organoid [1]; Replication number 2): 118.859% and 107.077%
Cell Viability (Colon cancer organoid [2]; Replication number 1): 129.525% and 109.185%
Cell Viability (Colon cancer organoid [2]; Replication number 2): 133.262% and 97.2618%
Cell Viability (Colon cancer organoid [3]; Replication number 1): 113.516% and 88.4864%
Cell Viability (Colon cancer organoid [3]; Replication number 2): 88.4804% and 82.1429%

Cc1nc(-c2cn3c(n2)-c2ccc(-c4cnn(C(C)(C)C(N)=O)c4)cc2OCC3)n(C(C)C)n1 [TASELISIB]
Cell Viability (Colon cancer organoid [1]; Replication number 1): 24.4584% and 46.9606%
Cell Viability (Colon cancer organoid [1]; Replication number 2): 18.3941% and 28.1748%
Cell Viability (Colon cancer organoid [2]; Replication number 1): 40.2908% and 23.1884%
Cell Viability (Colon cancer organoid [2]; Replication number 2): 43.7188% and 27.2651%
Cell Viability (Colon cancer organoid [3]; Replication number 1): 74.483% and 67.4564%
Cell Viability (Colon cancer organoid [3]; Replication number 2): 68.3353% and 63.3321%

COc1ncc(F)cc1CNc1ccc(Cc2c[nH]c3ncc(C)cc23)c(F)n1 [PLX-5622]
Cell Viability (Colon cancer organoid [1]; Replication number 1): 113.45% and 123.522%
Cell Viability (Colon cancer organoid [1]; Replication number 2): 100.072% and 108.792%
Cell Viability (Colon cancer organoid [2]; Replication number 1): 193.371% and 111.454%
Cell Viability (Colon cancer organoid [2]; Replication number 2): 159.434% and 112.03%
Cell Viability (Colon cancer organoid [3]; Replication number 1): 106.139% and 77.4913%
Cell Viability (Colon cancer organoid [3]; Replication number 2): 117.508% and 96.7254%

CCC(=O)N1CCN(c2ccc(-n3c(=O)ccc4cnc5ccc(-c6cnc7ccccc7c6)cc5c43)cc2C(F)(F)F)CC1 [TORIN1]
Cell Viability (Colon cancer organoid [1]; Replication number 1): 3.399% and 11.5065%
Cell Viability (Colon cancer organoid [2]; Replication number 1): 18.1039% and 19.199%
Cell Viability (Colon cancer organoid [2]; Replication number 2): 16.4682% and 14.0105%
Cell Viability (Colon cancer organoid [3]; Replication number 1): 35.688% and 65.784%
Cell Viability (Colon cancer organoid [3]; Replication number 2): 42.752% and 81.756%

CN(C)[C@H]1CN(C2CCc3cccc(F)c32)C[C@@H]1c1ccc(N2CCN(S(C)(=O)=O)CC2)cc1 (some centres not stated)
Cell Viability (Colon cancer organoid [1]; Replication number 1): 159.825% and 136.993%
Cell Viability (Colon cancer organoid [1]; Replication number 2): 128.982% and 128.571%
Cell Viability (Colon cancer organoid [2]; Replication number 1): 201.275% and 108.733%
Cell Viability (Colon cancer organoid [2]; Replication number 2): 175.885% and 109.186%
Cell Viability (Colon cancer organoid [3]; Replication number 1): 78.9326% and 94.0562%
Cell Viability (Colon cancer organoid [3]; Replication number 2): 85.3871% and 90.7518%
